Patent US20260347319A1, “YAP/TAZ-TEAD ONCOPROTEINS INHIBITORS” (BridGene Biosciences, Inc., priority 2022, published 2026)

System: TEAD1
Assay: MCF-7 TEAD1-luciferase reporter assay (MCF7-TEAD-Luc)
Format: cell-based
Conditions: MCF7 cells, overnight; for IC50: Homo sapiens; for TEAD1-Luc MCF7: Max Inhibition: % of DMSO-treated control
Description: The ability of compounds to inhibit TEAD-dependent transcription was assessed in the MCF7-TEAD-Luc reporter assay (BPS #60618). Cells were seeded at 10,000 cells in 200 μL per well into white wall, clear bottom 96-well plates (Corning #3610) and incubated at 37° C. for 24 hours, then treated with serial diluted compounds overnight, and luciferase signal was measured using the ONE-Step Luciferase Assay System (BPS #60690) using an EnSight Multimode plate reader (PerkinElmer, model #MLDHH34000000, integration time 100 ms) with Kaleido 3.0. software. For data analysis, dose-dependent curves were plotted as “% inhibition” (% of DMSO-treated control wells), and were fitted by four-parametric model in GraphPad Prism to obtain IC50 values.

In the case of `C=CC(=O)N1CC(/C=C\c2cc(C(F)(F)F)on2)C1` [Example 26, 1-{3-[(Z)-2-[5-(trifluoromethyl)-1,2-oxazol-3-yl]ethenyl]azetidin-1-yl}prop-2-en-1-one], the IC50 is reported as 10 to 100 nM and the “TEAD1-Luc MCF7: Max Inhibition” value is reported as “B (75% > B ≥ 50%)”.
For `C=CC(=O)N1C[C@@H](CC)[C@H](/C=C\c2ccc(C(F)(F)F)cc2)C1` [Example 31, 1-{3-ethyl-4-[(Z)-2-[4-(trifluoromethyl)phenyl]ethenyl]pyrrolidin-1-yl}prop-2-en-1-one], the IC50 was 100 to 500 nM and the “TEAD1-Luc MCF7: Max Inhibition” value was “A (A ≥ 75%)”.
`C=CC(=O)N1C[C@@H](CC)[C@H](/C=C/c2ccc(C(F)(F)F)cc2)C1` [Example 32, 1-{3-ethyl-4-[(E)-2-[4-(trifluoromethyl)phenyl]ethenyl]pyrrolidin-1-yl}prop-2-en-1-one] was tested, and the IC50 was 100 to 500 nM and the “TEAD1-Luc MCF7: Max Inhibition” value was “A (A ≥ 75%)”.
In the case of `C=CC(=O)N1CCC(/C=C/c2ccc(C(F)(F)F)cc2)(OC)C1` (stereo not drawn) [Example 35, (E)-1-(3-methoxy-3-(4-(trifluoromethyl)styryl)pyrrolidin-1-yl)prop-2-en-1-one], the IC50 is reported as 10 to 100 nM and the “TEAD1-Luc MCF7: Max Inhibition” value is reported as “A (A ≥ 75%)”.
`C=CC(=O)N1CC(C#N)(/C=C/c2ccc(C(F)(F)F)cc2)C1` [Example 37] was tested, and the IC50 was 10 to 100 nM and the “TEAD1-Luc MCF7: Max Inhibition” value was “A (A ≥ 75%)”.
In the case of `C=CC(=O)N1CC2(CC=C(c3ccc(C(F)(F)F)cc3)CC2)C1` [Example 46, 1-(7-(4-(trifluoromethyl)phenyl)-2-azaspiro[3.5]non-6-en-2-yl)prop-2-en-1-one], the IC50 is reported as 10 to 100 nM and the “TEAD1-Luc MCF7: Max Inhibition” value is reported as “B (75% > B ≥ 50%)”.
In the case of `C=CC(=O)N1CC2(C=C(c3ccc(C(F)(F)F)cc3)CC2)C1` [Example 47, 1-(6-(4-(trifluoromethyl)phenyl)-2-azaspiro[3.4]oct-5-en-2-yl)prop-2-en-1-one], the IC50 is reported as at most 10 nM and the “TEAD1-Luc MCF7: Max Inhibition” value is reported as “C (50% > C ≥ 2%)”.
In the case of `C=CC(=O)N1CC2(CC=C(c3ccc(C(F)(F)F)cc3)C2)C1` [Example 48, 1-(6-(4-(trifluoromethyl)phenyl)-2-azaspiro[3.4]oct-6-en-2-yl)prop-2-en-1-one], the IC50 is reported as 100 to 500 nM and the “TEAD1-Luc MCF7: Max Inhibition” value is reported as “B (75% > B ≥ 50%)”.
In the case of `C=CC(=O)N1CC(c2cc3ccc(C(F)(F)F)cc3o2)C1` [Example 49, 1-{3-[6-(trifluoromethyl)-1-benzofuran-2-yl]azetidin-1-yl}prop-2-en-1-one], the IC50 is reported as 100 to 500 nM and the “TEAD1-Luc MCF7: Max Inhibition” value is reported as “B (75% > B ≥ 50%)”.
With `C=CC(=O)N1CC(c2cc3cc(C(F)(F)F)ccn3n2)C1` [Example 50, 1-(3-(5-(trifluoromethyl)pyrazolo[1,5-a]pyridin-2-yl)azetidin-1-yl)prop-2-en-1-one] the IC50 was at most 10 nM and the “TEAD1-Luc MCF7: Max Inhibition” value was “B (75% > B ≥ 50%)”.
For `C=CC(=O)N1CC(c2cc3ccc(C(F)(F)F)cn3n2)C1` [Example 51, 1-(3-(6-(trifluoromethyl)pyrazolo[1,5-a]pyridin-2-yl)azetidin-1-yl)prop-2-en-1-one], the IC50 was 10 to 100 nM and the “TEAD1-Luc MCF7: Max Inhibition” value was “B (75% > B ≥ 50%)”.
`C=CC(=O)N1CC(c2cc3ccc(C(F)(F)F)cc3[nH]2)C1` [Example 52, 1-{3-[6-(trifluoromethyl)-1H-indol-2-yl]azetidin-1-yl}prop-2-en-1-one] was tested, and the IC50 was 10 to 100 nM and the “TEAD1-Luc MCF7: Max Inhibition” value was “A (A ≥ 75%)”.
`C=CC(=O)N1CC(c2cc3ccc(C(F)(F)F)cc3n2C)C1` [Example 53, 1-{3-[1-methyl-6-(trifluoromethyl)indol-2-yl]azetidin-1-yl}prop-2-en-1-one] was tested, and the IC50 was 100 to 500 nM and the “TEAD1-Luc MCF7: Max Inhibition” value was “B (75% > B ≥ 50%)”.
In the case of `C=CC(=O)N1CCC(/C=C/c2cccc(C(F)(F)F)c2)CC1` [Example 54, (E)-1-(4-(3-(trifluoromethyl)styryl)piperidin-1-yl)prop-2-en-1-one], the IC50 is reported as 100 to 500 nM and the “TEAD1-Luc MCF7: Max Inhibition” value is reported as “B (75% > B ≥ 50%)”.
`C=CC(=O)N1CCC(/C=C\c2cccc(C(F)(F)F)c2)CC1` [Example 55, (Z)-1-(4-(3-(trifluoromethyl)styryl)piperidin-1-yl)prop-2-en-1-one] was tested, and the IC50 was over 500 nM and the “TEAD1-Luc MCF7: Max Inhibition” value was “C (50% > C ≥ 2%)”.
With `C=CC(=O)N1CC(/C=C/c2ccc(C(F)(F)F)cc2)C(n2cccn2)C1` (stereo not drawn) [Example 70] the IC50 was 10 to 100 nM and the “TEAD1-Luc MCF7: Max Inhibition” value was “A (A ≥ 75%)”.
`C=CC(=O)N1CCC(C#Cc2ccc(C(F)(F)F)cc2)(OC)CC1` [Example 71, 1-(4-methoxy-4-((4-(trifluoromethyl)phenyl)ethynyl)piperidin-1-yl)prop-2-en-1-one] was tested, and the IC50 was 10 to 100 nM and the “TEAD1-Luc MCF7: Max Inhibition” value was “B (75% > B ≥ 50%)”.
With `C=CC(=O)N1CCC(F)(C#Cc2ccc(C(F)(F)F)cc2)CC1` [Example 72, 1-(4-fluoro-4-((4-(trifluoromethyl)phenyl)ethynyl)piperidin-1-yl)prop-2-en-1-one] the IC50 was 10 to 100 nM and the “TEAD1-Luc MCF7: Max Inhibition” value was “B (75% > B ≥ 50%)”.
With `C=CC(=O)N1CCC(O)(C#Cc2ccc(C(F)(F)F)cc2)CC1` [Example 73, 1-(4-hydroxy-4-((4-(trifluoromethyl)phenyl)ethynyl)piperidin-1-yl)prop-2-en-1-one] the IC50 was 10 to 100 nM and the “TEAD1-Luc MCF7: Max Inhibition” value was “A (A ≥ 75%)”.
`C=CC(=O)N1CCC(C)(C#Cc2ccc(C(F)(F)F)cc2)CC1` [Example 74, 1-(4-methyl-4-((4-(trifluoromethyl)phenyl)ethynyl)piperidin-1-yl)prop-2-en-1-one] was tested, and the IC50 was at most 10 nM and the “TEAD1-Luc MCF7: Max Inhibition” value was “B (75% > B ≥ 50%)”.
With `C=CC(=O)N1CCCC(C#Cc2cccc(C(F)(F)F)c2)C1` (stereo not drawn) [Example 75, 1-(3-((3-(trifluoromethyl)phenyl)ethynyl)piperidin-1-yl)prop-2-en-1-one] the IC50 was 10 to 100 nM and the “TEAD1-Luc MCF7: Max Inhibition” value was “A (A ≥ 75%)”.
`C=CC(=O)N1CCCC(C#Cc2ccc(C(F)(F)F)cc2)C1` (stereo not drawn) [Example 76, 1-(3-((4-(trifluoromethyl)phenyl)ethynyl)piperidin-1-yl)prop-2-en-1-one] was tested, and the IC50 was 10 to 100 nM and the “TEAD1-Luc MCF7: Max Inhibition” value was “A (A ≥ 75%)”.
With `CC#CC(=O)N1CC(/C=C/c2ccc(C(F)(F)F)cc2)C1` [Example 77, (E)-1-(3-(4-(trifluoromethyl)styryl)azetidin-1-yl)but-2-yn-1-one] the IC50 was 10 to 100 nM and the “TEAD1-Luc MCF7: Max Inhibition” value was “B (75% > B ≥ 50%)”.
In the case of `C#CC(=O)N1CC(/C=C/c2ccc(C(F)(F)F)cc2)C1` [Example 78, (E)-1-(3-(4-(trifluoromethyl)styryl)azetidin-1-yl)prop-2-yn-1-one], the IC50 is reported as 100 to 500 nM and the “TEAD1-Luc MCF7: Max Inhibition” value is reported as “A (A ≥ 75%)”.
With `C=CC(=O)N1CCC(C#Cc2cccc(C(F)(F)F)c2)CC1` [Example 79, 1-(4-((3-(trifluoromethyl)phenyl)ethynyl)piperidin-1-yl)prop-2-en-1-one] the IC50 was 10 to 100 nM and the “TEAD1-Luc MCF7: Max Inhibition” value was “B (75% > B ≥ 50%)”.
`C=CC(=O)N1CCC(C#Cc2ccc(C(F)(F)F)cc2)CC1` [Example 80, 1-(4-((4-(trifluoromethyl)phenyl)ethynyl)piperidin-1-yl)prop-2-en-1-one] was tested, and the IC50 was 10 to 100 nM and the “TEAD1-Luc MCF7: Max Inhibition” value was “A (A ≥ 75%)”.
For `CC#CC(=O)N1CC[C@H](/C=C/c2ccc(C(F)(F)F)cc2)C1` [Example 81, (R,E)-1-(3-(4-(trifluoromethyl)styryl)pyrrolidin-1-yl)but-2-yn-1-one], the IC50 was 100 to 500 nM and the “TEAD1-Luc MCF7: Max Inhibition” value was “B (75% > B ≥ 50%)”.
In the case of `C#CC(=O)N1CC[C@H](/C=C/c2ccc(C(F)(F)F)cc2)C1` [Example 82, (R, E)-1-(3-(4-(trifluoromethyl)styryl)pyrrolidin-1-yl)prop-2-yn-1-one], the IC50 is reported as 10 to 100 nM and the “TEAD1-Luc MCF7: Max Inhibition” value is reported as “A (A ≥ 75%)”.
`C=CC(=O)N1CC[C@H](C(C)(C)/C=C/c2ccc(C(F)(F)F)cc2)C1` [Example 86, (R, E)-1-(3-(2-methyl-4-(4-(trifluoromethyl)phenyl)but-3-en-2-yl)pyrrolidin-1-yl)prop-2-en-1-one] was tested, and the IC50 was 10 to 100 nM and the “TEAD1-Luc MCF7: Max Inhibition” value was “B (75% > B ≥ 50%)”.
`C=CC(=O)N1CC[C@H](/C=C\c2ccc(C(F)(F)F)cc2)C1` [Example 87, (R, Z)-1-(3-(4-(trifluoromethyl)styryl)pyrrolidin-1-yl)prop-2-en-1-one] was tested, and the IC50 was 100 to 500 nM and the “TEAD1-Luc MCF7: Max Inhibition” value was “B (75% > B ≥ 50%)”.
In the case of `C=CC(=O)N1CCC(C/C=C/c2ccc(C(F)(F)F)cc2)CC1` [Example 90, (E)-1-(4-(3-(4-(trifluoromethyl)phenyl)allyl)piperidin-1-yl)prop-2-en-1-one], the IC50 is reported as 10 to 100 nM and the “TEAD1-Luc MCF7: Max Inhibition” value is reported as “B (75% > B ≥ 50%)”.
`C=CC(=O)N1CCC(/C=C/C(O)c2ccc(C(F)(F)F)cc2)C1` (stereo not drawn) [Example 99, (E)-1-(3-(3-hydroxy-3-(4-(trifluoromethyl)phenyl)prop-1-en-1-yl)pyrrolidin-1-yl)prop-2-en-1-one] was tested, and the IC50 was 10 to 100 nM and the “TEAD1-Luc MCF7: Max Inhibition” value was “B (75% > B ≥ 50%)”.
In the case of `C=CC(=O)N1CCC(/C=C\C(O)c2ccc(C(F)(F)F)cc2)C1` (stereo not drawn) [Example 100, (Z)-1-(3-(3-hydroxy-3-(4-(trifluoromethyl)phenyl)prop-1-en-1-yl)pyrrolidin-1-yl)prop-2-en-1-one], the IC50 is reported as 10 to 100 nM and the “TEAD1-Luc MCF7: Max Inhibition” value is reported as “B (75% > B ≥ 50%)”.
In the case of `C=CC(=O)N1CCC(/C=C\C(OC)c2ccc(C(F)(F)F)cc2)C1` (stereo not drawn) [Example 101, (Z)-1-(3-(3-methoxy-3-(4-(trifluoromethyl)phenyl)prop-1-en-1-yl)pyrrolidin-1-yl)prop-2-en-1-one], the IC50 is reported as 100 to 500 nM and the “TEAD1-Luc MCF7: Max Inhibition” value is reported as “B (75% > B ≥ 50%)”.
In the case of `C=CC(=O)N1CCC(/C=C/C(OC)c2ccc(C(F)(F)F)cc2)C1` (stereo not drawn) [Example 102, (E)-1-(3-(3-methoxy-3-(4-(trifluoromethyl)phenyl)prop-1-en-1-yl)pyrrolidin-1-yl)prop-2-en-1-one], the IC50 is reported as 10 to 100 nM and the “TEAD1-Luc MCF7: Max Inhibition” value is reported as “C (50% > C ≥ 2%)”.
For `C=CC(=O)N1CCC2(C=C(c3ccc(C(F)(F)F)cc3)OC2)C1` (stereo not drawn) [Example 105, 1-(3-(4-(trifluoromethyl)phenyl)-2-oxa-7-azaspiro[4.4]non-3-en-7-yl)prop-2-en-1-one], the IC50 was 10 to 100 nM and the “TEAD1-Luc MCF7: Max Inhibition” value was “A (A ≥ 75%)”.
